Reference: US9676820B2, “Method for inhibiting proliferation of high LIX1L-expressing tumor cell, and tumor cell proliferation-inhibiting peptide” (National University Corporation Hamamatsu University School …, priority 2013, dated 2017)

Columns and labels:
HL-60 strain = assay: Viable cell counts (Trypan blue staining), HL-60 strain; assay type: cell-based; conditions: 5 μM peptide, vs untreated
Description: Specifically, cells plated such that the density thereof became 1×10^4 cells/3.5 cm well for one plate (6 wells/plate) for each cell strain were cultured for one night in a culture solution having the same composition as those of the culture solutions described in the reference examples. After culturing of 1 well out of the 6 wells was completed, Trypan blue staining was performed on the 1 well, and viable cell counts were counted. The remaining 5 wells were cultured after exchanging the culture solution with a liquid mixture of a Lipofectamine (registered trademark) reagent (12.5 μL/well) and a culture solution (2 mL/well) of which the shRNA concentration became 2.5 μg/well. Then, Trypan blue staining was performed on 1 well 24 hours after the exchange of a culture medium, 1 well 48 hours after the exchange of a culture medium, and the remaining 1 well 72 hours after the exchange of a culture medium, and the viable cell counts were counted. As a control, the viable cell counts were measured (untreated) by performing the culturing similarly to the above except that a culture medium was exchanged with a culture solution to which no shRNA was added.
Specifically, the viable cell counts were measured after culturing the cells similarly to Example 1 except that a 5 μM culture solution containing a control peptide, a peptide 1, or a peptide 2 was used instead of the culture solution (2 mL/well) of which the shRNA concentration was 2.5 μg/well. The viable cell counts were measured (untreated) by performing the culturing similarly to Example 1 using a culture solution containing no peptide 2, as a control.

293 FLG/LIX1L = assay: Colony formation assay (agarose), 293 FLG/LIX1L cells (Example 9); assay type: cell-based; conditions: 293 FLG/LIX1L/PY136 cells, 14 days
Description: In the colony formation assay, the 293 FLG cells, the 293 FLG/LIX1L cells, and the 293 FLG/LIX1L/PY136 cells were respectively mixed in 10% FCS-containing DMEM culture media, to which 0.4% agarose was added, and the mixtures were gently placed on 0.6% agarose- and 10% FCS-containing DMEM culture media for culturing for 14 days. Thereafter, the influence of LIX1L and PY136 on cell proliferation was evaluated by counting the number of colonies in each well using an optical microscope (manufactured by Zeiss).

For `CC(C)[C@H](NC(=O)[C@H](Cc1ccc(O)cc1)NC(=O)[C@H](CS)NC(=O)[C@@H](NC(=O)[C@H](Cc1ccc(O)cc1)NC(=O)[C@@H]1CCCN1C(=O)[C@@H]1CCCN1C(=O)[C@H](CO)NC(=O)[C@H](CC(N)=O)NC(=O)[C@H](CO)NC(=O)[C@@H]1CCCN1C(=O)CCCCCNC(=O)[C@H](CCCNC(=N)N)NC(=O)[C@H](CCCNC(=N)N)NC(=O)[C@H](CCCNC(=N)N)NC(=O)[C@H](CCC(N)=O)NC(=O)[C@H](CCCNC(=N)N)NC(=O)[C@H](CCCNC(=N)N)NC(=O)[C@H](CCCCN)NC(=O)[C@H](CCCCN)NC(=O)[C@H](CCCNC(=N)N)NC(=O)CNC(=O)[C@@H](N)Cc1ccc(O)cc1)C(C)C)C(N)=O` [peptide 1, YGRKKRRQRRR-X-PSNSPPYVCYV-NH2], which viable cell counts (HL-60 strain; after 72 hours) is on record?
Its viable cell counts is “very small”.

And the viable cell counts (HL-60 strain; after culturing for 24 hours)?
Its viable cell counts is “decreased”.

What about the “formation of colonies (colony formation assay)” value (293 FLG/LIX1L) of the same compound?
Its value is “significantly inhibited”.
